Assays:
[1] = system: Chlamydia Pneumoniae; settings: reported; cited from earlier work
[2] = system: severe acute lower back pain; settings: short-term oral treatment; effect not seen three or so days after onset; cited from earlier work
[3] = system: cervical/lumbosacral disc disease; experiment: Clinical injection/arthroscopic application of azithromycin with liposome in disc disease; type: in vivo, human; settings: two occasions, applied with a liposome and another anti-inflammatory at surgical arthroscopy of the intervertebral disc
Source text: The therapy of the present invention was also observed to be effective in clinical treatment of cervical/lumbosacral disc disease.

[4] = system: phospholipase A2; settings: VanBebeke et al, 1994; cited from earlier work

Structure (SMILES)	potency against Chlamydia Pneumoniae [1]	response of severe acute lower back pain [2]	relief of the patients' severe pain [3]	effect on neurotoxic phospholipase A2 [4]
Cc1c(F)c(N2CCNC(C)C2)cc2c1c(=O)c(C(=O)O)cn2C1CC1 (centres unmarked) [Grepafloxacin]	good potency	–	–	–
CC[C@H]1OC(=O)[C@H](C)[C@@H](O[C@H]2C[C@@](C)(OC)[C@@H](O)[C@H](C)O2)[C@H](C)[C@@H](O[C@@H]2O[C@H](C)C[C@H](N(C)C)[C@H]2O)[C@](C)(O)C[C@@H](C)CN(C)[C@H](C)[C@@H](O)[C@]1(C)O [azithromycin, azithromycin dihydrate]	–	respond dramatically	good and immediate relief	direct effect in mitigating the effects
CO[C@H]1/C=C/O[C@@]2(C)Oc3c(C)c(O)c4c(O)c(c(/C=N/N5CCN(C)CC5)c(O)c4c3C2=O)NC(=O)/C(C)=C\C=C\[C@H](C)[C@H](O)[C@@H](C)[C@@H](O)[C@@H](C)[C@H](OC(C)=O)[C@@H]1C [rifanpin]	good potency	–	–	–
